These results are taken from patent US20260274892A1, “MACROCYCLIC BROAD SPECTRUM ANTIBIOTICS” (RQx Pharmaceuticals, Inc., priority 2017, published 2026).

Assay [1] relates to Methicillin Resistant Staphylococcus aureus strain USA 200. Description: Minimum inhibitory concentration (MIC), CLSI broth micro-dilution, S. aureus. Type of assay: cell-based. The note with it: Staphylococcus aureus, MRSA / USA200, MRSA USA 200, cation adjusted Mueller Hinton Broth + 0.002% Tween-80, 35° C., 22 hours. The gist of the method:
(§1)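 Antibacterial potency is measured as MIC by the CLSI broth dilution method. Bacteria at OD600 0.0005 in Tween-80-supplemented cation-adjusted Mueller Hinton broth face ten twofold compound dilutions for 22 h at 35° C.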
(Dilution methods test growth across graded concentrations, often in twofold steps.)

In assay [2] the test system is Escherichia coli ATCC 25922. Kind of assay: Minimum inhibitory concentration (MIC), CLSI broth micro-dilution, E. coli. Type of assay: cell-based. The settings on record: Escherichia coli, ATCC25922, 22 h. Summed up:
as §1

The mark [3] stands for this setting: Table 6, cation adjusted Mueller Hinton Broth + 0.002% Tween-80, 35° C.

Regarding `Cc1nc(-c2ccc(OC3CCCCC3)cc2)nc(C)c1C(=O)N[C@@H](CCNS(C)(=O)=O)C(=O)N(C)[C@@H]1C(=O)N[C@@H](C)C(=O)N[C@H](C(=O)NCC#N)Cc2ccc(OCCN)c(c2)-c2cc1ccc2OCCN` [Compound 497, (8S,11S,14S)-3,18-bis(2-aminoethoxy)-N-(cyanomethyl)-14-[[(2S)-2-[[2-[4-(cyclohexoxy)phenyl]-4,6-dimethyl-pyrimidine-5-carbonyl]amino]-4-(methanesulfonamido)butanoyl]-methyl-amino]-11-methyl-10,13-dioxo-9,12-diazatricyclo[13.3.1.12,6]icosa-1(18),2(20),3,5,15(19),16-hexaene-8-carboxamide], the results for the MIC in assay [1] (Table 6) and in assay [2] (setting [3]) were 0.047 µM and 0.75 µM, respectively.
Regarding `Cc1cc(-c2ccc(OC3CCCCC3)cc2)nc(C)c1C(=O)N[C@@H](CCN)C(=O)N(C)[C@@H]1C(=O)N[C@@H](C)C(=O)N[C@H](C(=O)NCC#N)Cc2ccc(OCCN)c(c2)-c2cc1ccc2OCCN` (racemic) [Compound 364, rac-(8S,11S,14S)-3,18-bis(2-aminoethoxy)-N-(cyanomethyl)-11-methyl-14-[methyl-[rac-(2S)-4-amino-2-[[6-[4-(cyclohexoxy)phenyl]-2,4-dimethyl-pyridine-3-carbonyl]amino]butanoyl]amino]-10,13-dioxo-9,12-diazatricyclo[13.3.1.12,6]icosa-1(18),2(20),3,5,15(19),16-hexaene-8-carboxamide], the MIC stood at 0.016 µM in assay [1] (Table 6) and 0.25 µM in assay [2] (setting [3]).
For `Cc1nc(-c2ccc(C(C)(C)C)cc2)nc(C)c1C(=O)N[C@@H](CO)C(=O)N[C@@H](CCN)C(=O)N(C)[C@@H]1C(=O)N[C@@H](C)C(=O)N[C@H](C(=O)NCC#N)Cc2ccc(OCCN)c(c2)-c2cc1ccc2OCCN` (racemic) [Compound 465, rac-(8S,11S,14S)-3,18-bis(2-aminoethoxy)-N-(cyanomethyl)-11-methyl-14-[methyl-[rac-(2S)-4-amino-2-[[rac-(2S)-2-[[2-(4-tert-butylphenyl)-4,6-dimethyl-pyrimidine-5-carbonyl]amino]-3-hydroxy-propanoyl]amino]butanoyl]amino]-10,13-dioxo-9,12-diazatricyclo[13.3.1.12,6]icosa-1(18),2(20),3,5,15(19),16-hexaene-8-carboxamide], the figures for the MIC in assay [1] (Table 6) and in assay [2] (setting [3]) were 0.047 µM and 4 µM, respectively.
For `Cc1nc(-c2ccc(O)cc2)ncc1C(=O)N[C@@H](CCN)C(=O)N(C)[C@@H]1C(=O)N[C@@H](C)C(=O)N[C@H](C(=O)NCC#N)Cc2ccc(OCCN)c(c2)-c2cc1ccc2OCCN` (racemic) [Compound 524, rac-(8S,11S,14S)-3,18-bis(2-aminoethoxy)-N-(cyanomethyl)-11-methyl-14-[methyl-[rac-(2S)-4-amino-2-[[2-(4-hydroxyphenyl)-4-methyl-pyrimidine-5-carbonyl]amino]butanoyl]amino]-10,13-dioxo-9,12-diazatricyclo[13.3.1.12,6]icosa-1(18),2(20),3,5,15(19),16-hexaene-8-carboxamide], the MIC in assay [1] (Table 6) is 0.56 µM; in assay [2] (setting [3]), 4.5 µM.
As for `Cc1nc(-c2ccc(C(C)(C)C)cc2)nc(C)c1C(=O)N[C@@H](CCN)C(=O)N(C)[C@@H]1C(=O)N[C@@H](C)C(=O)N[C@H](C(=O)O)Cc2ccc(O)c(c2)-c2cc1ccc2OCCN` (racemic) [Compound 646, rac-(8S,11S,14S)-18-(2-aminoethoxy)-3-hydroxy-11-methyl-14-[methyl-[rac-(2S)-4-amino-2-[[2-(4-tert-butylphenyl)-4,6-dimethyl-pyrimidine-5-carbonyl]amino]butanoyl]amino]-10,13-dioxo-9,12-diazatricyclo [13.3.1.12,6]icosa-1(18),2(20),3,5,15(19), 16-hexaene-8-carboxylic acid], the MIC in assay [1] (Table 8) worked out at 1.1 µM; in assay [2] (Table 8, cation adjusted Mueller Hinton Broth + 0.002% Tween-80, 35° C.), 0.37 µM.
With `Cc1nc(-c2ccc(C(C)(C)C)cc2)c(Cl)cc1C(=O)N[C@@H](CCN)C(=O)N(C)[C@@H]1C(=O)N[C@@H](C)C(=O)N[C@H](C(=O)NCC#N)Cc2ccc(OCCN)c(c2)-c2cc1ccc2OCCN` (racemic) [Compound 407, rac-(8S,11S,14S)-3,18-bis(2-aminoethoxy)-N-(cyanomethyl)-11-methyl-14-[methyl-[rac-(2S)-4-amino-2-[[6-(4-tert-butylphenyl)-5-chloro-2-methyl-pyridine-3-carbonyl]amino]butanoyl]amino]-10,13-dioxo-9,12-diazatricyclo[13.3.1.12,6]icosa-1(18),2(20),3,5,15(19),16-hexaene-8-carboxamide], the figures for the MIC in assay [1] (Table 6) and in assay [2] (setting [3]) were 0.016 µM and 0.13 µM, respectively.
The corresponding values for `Cc1nc(-c2ccc(C(C)(C)C)cc2)nc(C)c1C(=O)N[C@@H](CCN)C(=O)N(C)[C@@H]1C(=O)N[C@@H](C)C(=O)N[C@H](C(=O)NCC#N)Cc2ccc(OCCCN)c(c2)-c2cc1ccc2OCCCN` (racemic) [Compound 434, rac-(8S,11S,14S)-3,18-bis(3-aminopropoxy)-N-(cyanomethyl)-11-methyl-14-[methyl-[rac-(2S)-4-amino-2-[[2-(4-tert-butylphenyl)-4,6-dimethyl-pyrimidine-5-carbonyl]amino]butanoyl]amino]-10,13-dioxo-9,12-diazatricyclo[13.3.1.12,6]icosa-1(18),2(20),3,5,15(19),16-hexaene-8-carboxamide] are 0.023 µM and 0.21 µM.
On to `Cc1nc(-c2cccc(C(C)(C)C)c2)nc(C)c1C(=O)N[C@@H](CCN)C(=O)N(C)[C@@H]1C(=O)N[C@@H](C)C(=O)N[C@H](C(=O)NCC#N)Cc2ccc(OCCN)c(c2)-c2cc1ccc2OCCN` (racemic) [Compound 263, rac-(8S,11S,14S)-3,18-bis(2-aminoethoxy)-N-(cyanomethyl)-11-methyl-14-[methyl-[rac-(2S)-4-amino-2-[[2-(3-tert-butylphenyl)-4,6-dimethyl-pyrimidine-5-carbonyl]amino]butanoyl]amino]-10,13-dioxo-9,12-diazatricyclo[13.3.1.12,6]icosa-1(18),2(20),3,5,15(19),16-hexaene-8-carboxamide], for which the values for the MIC in assay [1] (Table 6) and in assay [2] (setting [3]) were 0.016 µM and 0.53 µM, respectively.
The corresponding values for `C[C@@H]1NC(=O)[C@@H](N(C)C(=O)[C@H](CCN)NC(=O)c2ccc(-c3ccc(C(C)(C)C)cc3)cc2Cl)c2ccc(OCCN)c(c2)-c2cc(ccc2OCCN)C[C@@H](C(=O)NCC#N)NC1=O` (racemic) [Compound 371, rac-(8S,11S,14S)-3,18-bis(2-aminoethoxy)-N-(cyanomethyl)-11-methyl-14-[methyl-[rac-(2S)-4-amino-2-[[4-(4-tert-butylphenyl)-2-chloro-benzoyl]amino]butanoyl]amino]-10,13-dioxo-9,12-diazatricyclo[13.3.1.12,6]icosa-1(18),2(20),3,5,15(19),16-hexaene-8-carboxamide] are 0.031 µM and 0.19 µM.
For the molecule `CCCCc1ccc(-c2ncc(C(=O)N[C@@H](CCN)C(=O)N(C)[C@@H]3C(=O)N[C@@H](C)C(=O)N[C@H](C(=O)NCC#N)Cc4ccc(OCCN)c(c4)-c4cc3ccc4OCCN)c(C)n2)c(Cl)c1` (racemic) [Compound 235, rac-(8S,11S,14S)-3,18-bis(2-aminoethoxy)-N-(cyanomethyl)-11-methyl-14-[methyl-[rac-(2S)-4-amino-2-[[2-(4-butyl-2-chloro-phenyl)-4-methyl-pyrimidine-5-carbonyl]amino]butanoyl]amino]-10,13-dioxo-9,12-diazatricyclo[13.3.1.12,6]icosa-1(18),2(20),3,5,15(19),16-hexaene-8-carboxamide], the MIC was 0.016 µM in assay [1] (Table 6) and 0.26 µM in assay [2] (setting [3]).

A word on the MIC: it is the lowest concentration that inhibits growth of the organism.
